Laboratory results from patent publication US8969362B2 (priority 2004, dated 2015).

Assays:
rat spleen cells = test: cells; assay type: cell-based; details: 24 h, read-out: Minimum effective concentration (interferon inducing activity)
[1] = Metabolic stability test on rat liver S9; assay type: in vitro ADME; details: rat liver S9 with NADPH, 1 μM test compound, 37° C.; residual rate after reaction
Protocol: The reaction using liver S9 of rat was conducted on a 96-well plate by using a screening robot by Tecan Company. S9 solution was prepared by adding 250 mM Kpi (ph 7.4) 20 ml and deionized water 20 ml to 10 ml of liver S9 of rat, a Cofactor solution was prepared by dissolving NADPH 220 mg in deionized water 40.5 ml (Final 6 mM), and IS (Internal Standard) solution was prepared by adding IS solution (1 mM DMSO solution) 300 μl to acetonitrile 30 ml (100 times dilution). The test compound (1 μM DMSO solution) was dissolved in an incubator at 37° C. After each 35 μL was poured in a 96-well plate (24 samples/plate), plates (sample plates, 96-well plates for dilution, each Deep well plates for the reaction and the recovery, plates for extraction of a solid phase) and reagents (S9 solution, Cofactor solution, IS (Internal Standard) solution, Stop solution, acetonitrile for elution) were set to the specified position in the booth of the robot and the reaction started (the concentration of the test compounds was 1 μM). Incubation was conducted under shaking at 37° C., the solid phase was extracted (at the same time, the internal standard for analysis was added). To the recovered samples 200 μL/well was added 50 μL of acetonitrile per each well, and to 2 plates of FALCON Deep well were poured 100 μL/well of the solution per well. By subjecting to the LC/MS analysis, the chromatography of the test compound and the internal standard were described and the peak area was calculated. And then, the stability (residual rate after reaction) was calculated.

[2] = Metabolic stability test using human plasma; assay type: in vitro ADME; details: 1 μM test compound, 37° C., 15 minutes, pre-metabolization concentration as 100%
Protocol: Plasma was prepared from fresh human blood and the test compound (containing 1% DMSO) of the final concentration of 1 μM was added thereto.
After a metabolic reaction by plasma esterase was conducted at 37° C. for 15 minutes, the test compound was extracted with ethyl acetate, and quantitatively analyzed by reverse phase HPLC. The metabolic stability of the test compound was shown by the residual amount (%) per the concentration of pre-metabolization as 100%.

SMILES | minimal effective concentration (rat spleen cells) [µM] | Residual rate [1] [%] | Residual rate [2] [%]
CCCCOc1nc(N)c2[nH]c(=O)n(CCOc3cccc(C(=O)OC)c3)c2n1 [Example 1, 2-butoxy-8-oxo-9-[2-(3-methoxycarbonylphenoxy)ethyl]adenine] | 0.0003 | 0 | –
CCCCOc1nc(N)c2[nH]c(=O)n(CCOc3ccccc3C(=O)OC)c2n1 [Example 3, 2-butoxy-8-oxo-9-[2-(2-methoxycarbonylphenoxy)ethyl]adenine] | 0.001 | 0 | –
CCCCOc1nc(N)c2[nH]c(=O)n(CCOc3ccccc3CC(=O)OC)c2n1 [Example 4, 2-butoxy-8-oxo-9-[2-(2-methoxycarbonylmethylphenoxy)ethyl]adenine] | 0.001 | 0 | –
CCCCOc1nc(N)c2[nH]c(=O)n(CCOc3ccc(C(=O)OC)cc3)c2n1 [Example 5, 2-butoxy-8-oxo-9-[2-(4-methoxycarbonylphenoxy)ethyl]adenine] | – | 0 | –
CCCCOc1nc(N)c2[nH]c(=O)n(CCCCNC(=O)Nc3cccc(C(=O)OC)c3)c2n1 [Example 10, 2-butoxy-8-oxo-9-[4-(3-methoxycarbonylphenylaminocarbonylamino)butyl]adenine] | 0.001 | 1 | –
CCCCOc1nc(N)c2[nH]c(=O)n(CCCCNS(=O)(=O)c3cccc(C(=O)OC)c3)c2n1 [Example 8, 2-butoxy-8-oxo-9-[4-(3-methoxycarbonylbenzenesulfonamide)butyl]adenine] | 0.003 | 0 | –
CCCCOc1nc(N)c2[nH]c(=O)n(CCOc3ccc(CCC(=O)OC)cc3)c2n1 [Example 7, 2-butoxy-8-oxo-9-{2-[4-(2-methoxycarbonylethyl)phenoxy]ethyl}adenine] | – | 0 | –
CCCCOc1nc(N)c2[nH]c(=O)n(CCOc3cccc(CC(=O)OC)c3)c2n1 [Example 2, 2-butoxy-8-oxo-9-[2-(3-methoxycarbonylmethylphenoxy)ethyl]adenine] | 0.003 | 1 | 1.4
CCCCOc1nc(N)c2[nH]c(=O)n(CCOc3ccc(CC(=O)OC)cc3)c2n1 [Example 6, 2-butoxy-8-oxo-9-[2-(4-methoxycarbonylmethylphenoxy)ethyl]adenine] | 0.01 | 0 | –
CCCCOc1nc(N)c2[nH]c(=O)n(CCCCNS(=O)(=O)c3cccc(CC(=O)OC)c3)c2n1 [Example 9, 2-butoxy-8-oxo-9-[4-(3-methoxycarbonylmethylbenzenesulfonamide)butyl]adenine] | 0.003 | 0 | <1.0
